Test results from patent US9062041B2 (Bayer Intellectual Property GmbH, priority 2011, dated 2015).

Tests used:
Format in all cases: cell-based
human PGD receptor = target: T1, human PGD receptor (Homo sapiens, UniProt Q13258); assay: cAMP antagonism test on the human prostaglandin D receptor (HTRF cAMP detection); settings: selectivity towards hDP, IC50 measured by cAMP antagonism test
T1 sequence (Q13258 1-359): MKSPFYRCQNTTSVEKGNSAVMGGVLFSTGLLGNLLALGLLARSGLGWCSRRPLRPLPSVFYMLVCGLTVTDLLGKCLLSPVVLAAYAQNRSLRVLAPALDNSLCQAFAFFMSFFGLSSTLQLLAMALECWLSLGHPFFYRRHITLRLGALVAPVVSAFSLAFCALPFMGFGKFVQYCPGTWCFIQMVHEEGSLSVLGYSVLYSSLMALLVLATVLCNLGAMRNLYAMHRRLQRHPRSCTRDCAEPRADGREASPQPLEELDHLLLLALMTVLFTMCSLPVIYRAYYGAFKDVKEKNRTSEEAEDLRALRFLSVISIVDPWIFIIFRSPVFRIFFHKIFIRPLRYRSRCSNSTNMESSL
In short: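 HTRF competition read-out (665/620 nm ratio ×10000), where higher FRET means less cAMP, i.e. antagonism. Compounds (0.8 nM–16.5 μM) were preincubated 20 min at RT with cells and cAMP-d2, PGD2 (3× solution, 6 nM) in IBMX-containing PBS added for 30 min at RT, then cells lysed 20 min.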

[1] = target: EP4 subtype of the human PGE2 receptor (Homo sapiens, UniProt P35408); assay: cAMP antagonism test on the human EP4 receptor (HTRF cAMP detection); settings: selectivity towards hEP4, IC50 measured by cAMP antagonism test
EP4 subtype of the human PGE2 receptor, sequence (P35408 whole entry): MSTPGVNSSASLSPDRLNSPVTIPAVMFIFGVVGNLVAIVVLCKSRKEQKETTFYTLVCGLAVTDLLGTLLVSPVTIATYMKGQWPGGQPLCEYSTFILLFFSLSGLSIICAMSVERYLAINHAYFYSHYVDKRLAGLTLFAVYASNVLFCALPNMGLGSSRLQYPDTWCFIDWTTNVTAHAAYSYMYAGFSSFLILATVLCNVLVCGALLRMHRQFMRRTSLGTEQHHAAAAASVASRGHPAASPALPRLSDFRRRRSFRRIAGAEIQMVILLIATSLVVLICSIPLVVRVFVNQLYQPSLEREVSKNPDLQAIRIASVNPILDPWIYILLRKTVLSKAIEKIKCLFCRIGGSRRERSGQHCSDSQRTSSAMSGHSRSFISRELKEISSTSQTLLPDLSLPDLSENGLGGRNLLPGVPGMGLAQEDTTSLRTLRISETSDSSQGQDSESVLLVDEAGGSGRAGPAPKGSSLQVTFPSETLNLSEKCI
In short: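 Competitive HTRF cAMP read-out (cAMP-d2 vs Eu-cryptate anti-cAMP antibody, 665/620 nm ratio) on lysed human EP4 cells. Compound (0.8 nM–16.5 μM) applied 20 min at RT before 60 min PGE2 challenge (3× solution 0.3 nM, IBMX present); 20 min lysis precedes reading.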

[2] = target: EP2 subtype of the human PGE2 receptor (Homo sapiens, UniProt P43116); assay: cAMP antagonism test on the human EP2 receptor (HTRF cAMP detection); settings: hEP2 receptor, read-out: Antagonism hEP2 IC50
EP2 subtype of the human PGE2 receptor, sequence (P43116 whole entry): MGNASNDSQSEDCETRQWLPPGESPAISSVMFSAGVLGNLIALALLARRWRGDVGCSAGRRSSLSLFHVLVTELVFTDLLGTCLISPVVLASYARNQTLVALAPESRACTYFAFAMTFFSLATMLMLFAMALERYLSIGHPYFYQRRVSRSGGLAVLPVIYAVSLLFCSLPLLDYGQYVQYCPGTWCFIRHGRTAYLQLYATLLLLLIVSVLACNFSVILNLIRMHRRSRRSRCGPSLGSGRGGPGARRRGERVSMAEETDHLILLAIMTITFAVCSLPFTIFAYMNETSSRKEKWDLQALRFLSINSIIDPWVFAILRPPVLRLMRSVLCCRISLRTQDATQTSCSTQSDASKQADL
In short: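 Read-out is a competitive HTRF for cAMP: lysate cAMP displaces cAMP-d2 from Eu cryptate-labelled antibody, and antagonism raises the 665/620 nm ratio. Compound (0.8 nM–16.5 μM) added to EP2 cells 20 min at RT before 60 min PGE2 challenge (3× stock 1.5 nM) with IBMX, followed by 20 min lysis.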

SMILES: COCCNC(=O)c1ccc2nn(C[C@H]3CCN(C(=O)c4ccc(Oc5ccc(C(F)(F)F)cc5)cc4)C3)cc2c1C [Example 224, N-(2-methoxyethyl)-4-methyl-2-{[(S)-1-{4-[4-(trifluoromethyl)phenoxy]benzoyl}pyrrolidin-3-yl]methyl}-2H-indazol-5-carboxamide]
- Selectivity hEP2/hDP (human PGD receptor): xxx (xxx > 100)
- Selectivity hEP2/hEP4 [1]: xxx (xxx > 100)
- IC50 [2]: 5.62 nM

SMILES: COCCNC(=O)c1ccc2nn(C[C@H]3CCN(C(=O)c4ccc(-c5ccc(F)cc5)cc4)C3)cc2c1C [Example 223, 2-({(S)-1-[(4′-fluorobiphenyl-4-yl)carbonyl]pyrrolidin-3-yl}methyl)-N-(2-methoxyethyl)-4-methyl-2H-indazol-5-carboxamide]
- Selectivity hEP2/hDP (human PGD receptor): xxx (xxx > 100)
- Selectivity hEP2/hEP4 [1]: xxx (xxx > 100)
- IC50 [2]: 20 nM

SMILES: COCCNC(=O)c1ccc2nn(CC3CCN(C(=O)c4cn(C)c5ccccc45)CC3)cc2c1OC [Example 273, 4-methoxy-N-(2-methoxyethyl)-2-({1-[(1-methyl-1H-indol-3-yl)carbonyl]-piperidin-4-yl}methyl)-2H-indazol-5-carboxamide]
- Selectivity hEP2/hDP (human PGD receptor): xxx (xxx > 100)
- Selectivity hEP2/hEP4 [1]: xxx (xxx > 100)
- IC50 [2]: 18.5 nM

SMILES: Cc1c(C(=O)NCCOCC(F)(F)F)ccc2nn(CC3CN(C(=O)c4ccc(Cl)cc4)C3)cc12 [Example 162, 2-{[1-(4-chlorobenzoyl)azetidin-3-yl]methyl}-4-methyl-N-[2-(2,2,2-trifluoro-ethoxy)ethyl]-2H-indazol-5-carboxamide]
- Selectivity hEP2/hDP (human PGD receptor): xxx (xxx > 100)
- Selectivity hEP2/hEP4 [1]: xxx (xxx > 100)
- IC50 [2]: 9.33 nM

SMILES: COCCNC(=O)c1cc2cn(CC3CCN(C(=O)c4cn(C)c5ccccc45)CC3)nc2cc1C [Example 281, N-(2-methoxyethyl)-6-methyl-2-({1-[(1-methyl-1H-indol-3-yl)carbonyl]-piperidin-4-yl}methyl)-2H-indazol-5-carboxamide]
- Selectivity hEP2/hDP (human PGD receptor): xxx (xxx > 100)
- Selectivity hEP2/hEP4 [1]: xxx (xxx > 100)
- IC50 [2]: 23 nM

SMILES: Cc1c(C(=O)NCC(F)(F)F)ccc2nn(CC3CCN(C(=O)c4cnc(-c5ccccc5)s4)CC3)cc12 [Example 298, 4-methyl-2-({1-[(2-phenylthiazol-5-yl)carbonyl]piperidin-4-yl}methyl)-N-(2,2,2-trifluoroethyl)-2H-indazol-5-carboxamide]
- Selectivity hEP2/hDP (human PGD receptor): xx (xx: 10-100)
- Selectivity hEP2/hEP4 [1]: xx (xx: 10-100)
- IC50 [2]: 345 nM

SMILES: COCCNC(=O)c1ccc2nn(CC3CN(C(=O)c4ccc(Cl)cc4)C3)cc2c1OC [Example 214, 2-{[1-(4-chlorobenzoyl)azetidin-3-yl]methyl}-4-methoxy-N-(2-methoxyethyl)-2H-indazol-5-carboxamide]
- Selectivity hEP2/hDP (human PGD receptor): xxx (xxx > 100)
- Selectivity hEP2/hEP4 [1]: xxx (xxx > 100)
- IC50 [2]: 64.9 nM

SMILES: COCCNC(=O)c1ccc2nn(CC3CCN(C(=O)c4ccc(Oc5cccc(C(F)(F)F)n5)cc4)CC3)cc2c1C [Example 350, N-(2-methoxyethyl)-4-methyl-2-{[1-(4-{[6-(trifluoromethyl)pyridin-2-yl]oxy}-benzoyl)piperidin-4-yl]methyl}-2H-indazol-5-carboxamide]
- Selectivity hEP2/hDP (human PGD receptor): xxx (xxx > 100)
- Selectivity hEP2/hEP4 [1]: xxx (xxx > 100)
- IC50 [2]: 8.41 nM

SMILES: COCCNC(=O)c1ccc2nn(CC3CN(C(=O)c4ccc(Oc5ccc(F)cc5)cc4)C3)cc2c1C [Example 159, 2-({1-[4-(4-fluorophenoxy)benzoyl]azetidin-3-yl}methyl)-N-(2-methoxyethyl)-4-methyl-2H-indazol-5-carboxamide]
- Selectivity hEP2/hDP (human PGD receptor): xxx (xxx > 100)
- Selectivity hEP2/hEP4 [1]: xxx (xxx > 100)
- IC50 [2]: 6.24 nM

SMILES: Cc1c(C(=O)NCC2CCC2)ccc2nn(CC3CCN(C(=O)c4ccc(Oc5ccc(C(F)(F)F)cc5)cc4)CC3)cc12 [Example 403, N-(cyclobutylmethyl)-4-methyl-2-[(1-{4-[4-(trifluoromethyl)phenoxy]benzoyl}-piperidin-4-yl)methyl]-2H-indazol-5-carboxamide]
- Selectivity hEP2/hDP (human PGD receptor): xxx (xxx > 100)
- Selectivity hEP2/hEP4 [1]: xxx (xxx > 100)
- IC50 [2]: 9.59 nM

SMILES: Cc1c(C(=O)NCCOCC2CC2)ccc2nn(CC3CCN(C(=O)c4ccc(-c5ccc(F)cc5)cc4)CC3)cc12 [Example 88, N-[2-(cyclopropyl-methoxy)ethyl]-2-({1-[(4′-fluorobiphenyl-4-yl)carbonyl]piperidin-4-yl}methyl)-4-methyl-2H-indazol-5-carboxamide]
- Selectivity hEP2/hDP (human PGD receptor): xxx (xxx > 100)
- Selectivity hEP2/hEP4 [1]: xxx (xxx > 100)
- IC50 [2]: 16.2 nM

SMILES: COCCNC(=O)c1ccc2nn(CC3CCN(C(=O)c4ccc(C5CC5)cc4)CC3)cc2c1OC(F)F [Example 228, 2-{[1-(4-cyclopropylbenzoyl)piperidin-4-yl]methyl}-4-(difluoromethoxy)-N-(2-methoxyethyl)-2H-indazol-5-carboxamide]
- Selectivity hEP2/hDP (human PGD receptor): xxx (xxx > 100)
- Selectivity hEP2/hEP4 [1]: xxx (xxx > 100)
- IC50 [2]: 8.09 nM

SMILES: COCCNC(=O)c1ccc2nn(CC3CCN(C(=O)c4ccc(Cl)cc4)CC3)cc2c1OCC(F)(F)F [Example 232, 2-{[1-(4-chlorobenzoyl)piperidin-4-yl]methyl}-N-(2-methoxyethyl)-4-(2,2,2-trifluoroethoxy)-2H-indazol-5-carboxamide]
- Selectivity hEP2/hDP (human PGD receptor): xxx (xxx > 100)
- Selectivity hEP2/hEP4 [1]: xxx (xxx > 100)
- IC50 [2]: 38.3 nM

SMILES: COCCNC(=O)c1ccc2nn(C[C@H]3CCN(C(=O)c4ccc(Cl)cc4)C3)cc2c1C [Example 222, 2-{[(S)-1-(4-chlorobenzoyl)pyrrolidin-3-yl]methyl}-N-(2-methoxyethyl)-4-methyl-2H-indazol-5-carboxamide]
- Selectivity hEP2/hDP (human PGD receptor): xxx (xxx > 100)
- Selectivity hEP2/hEP4 [1]: xxx (xxx > 100)
- IC50 [2]: 40.9 nM

SMILES: Cc1c(C(=O)NCC2CCO2)ccc2nn(CC3CCN(C(=O)c4ccc(Cl)cc4)CC3)cc12 (racemic) [Example 412, (+/−)-2-{[1-(4-chlorobenzoyl)piperidin-4-yl]methyl}-4-methyl-N-(oxetan-2-ylmethyl)-2H-indazol-5-carboxamide]
- Selectivity hEP2/hDP (human PGD receptor): xxx (xxx > 100)
- Selectivity hEP2/hEP4 [1]: xxx (xxx > 100)
- IC50 [2]: 63.5 nM

SMILES: Cc1c(C(=O)NCC(F)(F)F)ccc2nn(CC3CCN(C(=O)c4cc5cc(Cl)ccc5n4C)CC3)cc12 [Example 294, 2-({1-[(5-chloro-1-methyl-1H-indol-2-yl)carbonyl]piperidin-4-yl}methyl)-4-methyl-N-(2,2,2-trifluoroethyl)-2H-indazol-5-carboxamide]
- Selectivity hEP2/hDP (human PGD receptor): xxx (xxx > 100)
- Selectivity hEP2/hEP4 [1]: xxx (xxx > 100)
- IC50 [2]: 13.2 nM

SMILES: COCCNC(=O)c1ccc2nn(CC3CCN(C(=O)c4ccc(-c5ncco5)cc4)CC3)cc2c1C [Example 35, N-(2-methoxyethyl)-4-methyl-2-({1-[4-(oxazol-2-yl)-benzoyl]piperidin-4-yl}methyl)-2H-indazol-5-carboxamide]
- Selectivity hEP2/hDP (human PGD receptor): xxx (xxx > 100)
- Selectivity hEP2/hEP4 [1]: xxx (xxx > 100)
- IC50 [2]: 69.2 nM

SMILES: COCCNC(=O)c1ccc2nn(CC3CCN(C(=O)c4ccc(Br)cc4)CC3)cc2c1C [Example 54, 2-{[1-(4-bromo-benzoyl)piperidin-4-yl]methyl}-N-(2-methoxyethyl)-4-methyl-2H-indazol-5-carboxamide]
- Selectivity hEP2/hDP (human PGD receptor): xxx (xxx > 100)
- Selectivity hEP2/hEP4 [1]: xxx (xxx > 100)
- IC50 [2]: 4.74 nM

SMILES: COCCNC(=O)c1ccc2nn(CC3CCN(C(=O)c4ccc(-c5ccc(C(F)(F)F)cc5)cc4)CC3)cc2c1C [Example 360, N-(2-methoxyethyl)-4-methyl-2-[(1-{[4′-(trifluoromethyl)biphenyl-4-yl]-carbonyl}piperidin-4-yl)methyl]-2H-indazol-5-carboxamide]
- Selectivity hEP2/hDP (human PGD receptor): xxx (xxx > 100)
- Selectivity hEP2/hEP4 [1]: xxx (xxx > 100)
- IC50 [2]: 6.27 nM
